One experiment has as its system HIV-1 (R5 strain). Put plainly: HIV-1 cis-infection and replication in DCs (p24Gag ELISA). It is filed as cell-based. As to conditions: 10 and 100 μM, p24Gag in supernatant. Here is the method:
Human monocyte-derived dendritic cells (2×10^5; 300 μL) in RPMI 1640 medium containing 10% FBS were pre-treated with either anti-DC-SIGN antibodies (clone AZND1, Beckman-Coulter; 10 μg/mL) or compounds TriManC24 and TriManC24insat (10 and 100 μM) for 30 min at 37° C., before inoculation with HIV-1 (R5 strain; 100 ng of p24Gag). After 3 h, cells were pelleted and extensively washed to remove excess virus and compounds. On day 2, 4 and 7 after infection, cells were pelleted, an aliquot of the supernatant was removed and kept at −20° C., and half of the supernatant was replaced with fresh medium. Viral replication was monitored by measuring p24Gag levels in the culture supernatant by an enzyme-linked immunosorbent assay (ELISA, Innogenetics). […] As shown in the case of Dengue virus, the compounds of the invention may also interfere with HIV cis-infection. […] Discussion
For orientation: In an ELISA, binding on a coated surface is turned into a signal by an enzyme label.

For experiment [1], the target named is T1, DC-SIGN expressed at the surface of DCs (Homo sapiens, UniProt Q9NNX6).
T1 construct: endogenous in cells; host or cells: human monocyte-derived dendritic cells (GM-CSF/IL-4 differentiated)
T1 sequence (Q9NNX6 1-404): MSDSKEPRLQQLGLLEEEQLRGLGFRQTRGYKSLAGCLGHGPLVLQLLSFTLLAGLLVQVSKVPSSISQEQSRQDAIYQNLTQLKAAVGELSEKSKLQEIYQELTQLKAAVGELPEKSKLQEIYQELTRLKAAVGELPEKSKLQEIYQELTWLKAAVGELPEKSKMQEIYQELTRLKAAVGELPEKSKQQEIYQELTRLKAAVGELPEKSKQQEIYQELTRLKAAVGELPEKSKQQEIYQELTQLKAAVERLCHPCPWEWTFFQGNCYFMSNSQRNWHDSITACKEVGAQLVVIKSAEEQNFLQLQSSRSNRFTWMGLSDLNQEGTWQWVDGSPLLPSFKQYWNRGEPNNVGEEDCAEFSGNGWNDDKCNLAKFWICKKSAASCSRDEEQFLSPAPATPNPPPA
Put plainly: Competition with gp120-FITC binding to DCs, flow cytometry. It is filed as cell-based. As to conditions: 100 μM, 30 min pretreatment, competition not complete. The protocol: Human DCs (1×10^5 in 100 μl) were aliquoted in a 96-well microtiter plate in RPMI 1640 medium without FBS. To assess the binding of HIV-1 glycoprotein 120, FITC conjugated recombinant gp120 HIV-1 IIIB (ImmunoDiagnostics Inc, Woburn, Mass. U.S.A.) was added to the cells (final concentration of 5 μg/ml) and incubated for 45 min at 37° C. For competition assays, cells were pretreated with either mannan (100 μg/ml final) or TriManC24 (100 μM) for 30 min at 37° C., followed by incubation with gp120-FITC for 45 min at 37° C. After washing with HBSS buffer (Lonza), expression of fluorescence intensity was analyzed on a FACSCalibur flow cytometer with the CellQuest Pro software
The ability of TriManC24 to inhibit the interactions of HIV-1 gp120 with DC-SIGN […] at the surface of DCs. Immature DCs were prepared by differentiation of human monocytes, in the presence of a cocktail of cytokines. The expression levels of DC-SIGN were controlled by flow cytometry. […] When cells were incubated with fluorescently-labeled gp120, a strong binding of gp120 to DCs was observed as compared with a lower interaction with monocytes (FIG. 1B).
A competition assays were performed by pre-incubating DCs with either TriManC24 or mannan, followed by the addition of gp120-FITC (FIG. 1C).
In general terms: In flow cytometry, cells or beads pass a laser one at a time.

“Also recorded” adds a separate entry of the source.

Consider `CCCCCCCCCCCCCCCCCCCCCCCCC(=O)NC(COCCC(=O)NCCOCCOCCOCCOC1OC(CO)C(O)C(O)C1O)(COCCC(=O)NCCOCCOCCOCCOC1OC(CO)C(O)C(O)C1O)COCCC(=O)NCCOCCOCCOCCOC1OC(CO)C(O)C(O)C1O` (stereo not drawn) [TriManC24], for which the “inhibition of HIV-1 cis-infection / replication in DCs (in words)” value with HIV-1 (R5 strain) is on record as “decreases the amount of HIV R5 replication; also recorded: inhibit”. Also, the “inhibition of gp120 binding to DCs (in words)” value in experiment [1] was “able to inhibit the binding of gp120-FITC to DCs”; in experiment [1] (listed as TrimanC24), “competed for the binding of soluble gp120 glycoprotein to DC-SIGN”.

The values are drawn from patent publication US9522928B2, “Mannosylated compounds useful for the prevention and the treatment of infectious diseases” (UNIVERSITE DE STRASBOURG, priority 2011, dated 2016).
